Assay results published in publication PMC2742306 (Molecular cell, 2009).
Marks after values point to notes of the source that are not given here. Residues, ends and D or L forms follow the SMILES beside them. No end group written: not given here.

Experiments:
[1] = target: T1, wild-type DegS (Escherichia coli, UniProt P0AEE3); assay: OMP-peptide activation of RseA cleavage by wild-type DegS; type: biochemical, E. coli; conditions: for Hill Constant (peptide activation): 200 μM RseA
[2] = target: T1, wild-type DegS; type: biochemical, E. coli; conditions: wild-type DegS 0.9 μM trimer; 20 μM rhodamine-FP; saturating peptide
[3] = target: T2, D320A DegS (Escherichia coli, UniProt P0AEE3, D320A); assay: OMP-peptide activation of RseA cleavage by D320A DegS; type: biochemical, E. coli; conditions: D320A; for Hill Constant (peptide activation): 200 μM RseA
[4] = target: T2, D320A DegS; assay: Global fit to MWC allosteric model, D320A DegS; type: biochemical, E. coli; conditions: D320A, MWC global fit; for KRS, dissociation constant of RseA substrate for R-state subunit / KTS, dissociation constant of RseA substrate for T-state subunit: not peptide, binding; for L0, equilibrium constant T/R of unliganded enzyme: enzyme parameter, peptide-independent; for KTP/KRP: peptide preference for relaxed state; for kr, rate constant for cleavage of RseA by substrate-bound R-state subunits: same value for all enzymes and peptides
[5] = target: T1, wild-type DegS; type: biochemical, E. coli; conditions: for L0, equilibrium constant T/R of unliganded enzyme / KTP/KRP / kr, rate constant for cleavage of RseA by substrate-bound R-state subunits: MWC global fit; for L0, equilibrium constant T/R of unliganded enzyme: enzyme parameter, peptide-independent; for KTP/KRP: peptide preference for relaxed state; for kr, rate constant for cleavage of RseA by substrate-bound R-state subunits: same value for all enzymes and peptides
[6] = target: T3, K243D mutant of DegS (Escherichia coli, UniProt P0AEE3, K243D); assay: Global fit to MWC allosteric model, K243D DegS; type: biochemical, E. coli; conditions: K243D, MWC global fit
[7] = target: T3, K243D mutant of DegS; assay: OMP-peptide activation of RseA cleavage by K243D DegS; type: biochemical, E. coli; conditions: K243D
[8] = target: DegS K243D (residues 27–355, N-terminal His6 tag) (E. coli) (UniProt P0AEE3); assay: enzyme kinetics
[9] = target: T4, DegS D320A (residues 27–355, N-terminal His6 tag) (E. coli, UniProt P0AEE3 27-355, D320A); assay: enzyme kinetics
T4 sequence (looked up): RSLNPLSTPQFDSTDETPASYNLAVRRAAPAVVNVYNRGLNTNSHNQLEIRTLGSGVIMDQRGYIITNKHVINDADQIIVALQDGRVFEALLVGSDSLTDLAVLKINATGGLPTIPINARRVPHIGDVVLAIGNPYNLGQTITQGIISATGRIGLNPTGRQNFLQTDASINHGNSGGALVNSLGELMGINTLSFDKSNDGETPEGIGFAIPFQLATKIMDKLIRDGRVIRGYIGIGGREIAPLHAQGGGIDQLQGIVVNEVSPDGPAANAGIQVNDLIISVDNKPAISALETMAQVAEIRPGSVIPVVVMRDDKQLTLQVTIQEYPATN

[10] = target: T5, DegS K243D (residues 27–355, N-terminal His6 tag) (E. coli, UniProt P0AEE3 27-355, K243D); assay: enzyme kinetics
T5 sequence (looked up): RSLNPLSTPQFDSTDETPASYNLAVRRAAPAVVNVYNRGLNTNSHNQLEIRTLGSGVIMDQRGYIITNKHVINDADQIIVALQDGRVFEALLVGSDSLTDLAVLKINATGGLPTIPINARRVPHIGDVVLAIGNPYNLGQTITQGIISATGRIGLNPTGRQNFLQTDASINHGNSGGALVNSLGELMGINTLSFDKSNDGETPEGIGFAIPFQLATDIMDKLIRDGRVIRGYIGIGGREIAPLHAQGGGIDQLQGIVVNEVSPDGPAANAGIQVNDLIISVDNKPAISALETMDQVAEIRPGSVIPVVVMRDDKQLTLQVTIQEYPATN

[11] = saturating peptide, single sub-KM RseA concentration

T1 sequence (P0AEE3 27-355): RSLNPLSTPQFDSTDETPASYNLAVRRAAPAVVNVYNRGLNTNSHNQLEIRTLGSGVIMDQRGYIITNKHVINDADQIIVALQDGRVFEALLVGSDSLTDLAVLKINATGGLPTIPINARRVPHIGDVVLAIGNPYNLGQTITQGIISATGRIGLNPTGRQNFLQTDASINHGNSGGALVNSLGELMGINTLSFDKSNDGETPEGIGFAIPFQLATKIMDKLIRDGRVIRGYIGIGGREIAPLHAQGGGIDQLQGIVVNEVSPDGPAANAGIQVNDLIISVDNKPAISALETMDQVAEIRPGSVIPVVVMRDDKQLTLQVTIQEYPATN

For EDGEDGDYYF [EDGEDGDYYF], the “Hill Constant (peptide activation)” value ([1]; wild-type DegS) was 1.3 ± 0.1, the “rate of rhodamine-FP modification in presence of peptide (order)” value [2] was “slower still” and the “Hill Constant (peptide activation)” value [3] was 1.3 ± 0.1. For the same molecule, the “KRS, dissociation constant of RseA substrate for R-state subunit” value (shortened to “KRS, dissociation constant”) [4] was 150 µM, the “KTS, dissociation constant of RseA substrate for T-state subunit” value (“KTS, dissociation constant” below) [4] was 505 µM and the “L0, equilibrium constant T/R of unliganded enzyme” value (from here on “L0, equilibrium constant T/R”) [4] was 350. The KTP/KRP [4] was 2.1 and the “kr, rate constant for cleavage of RseA by substrate-bound R-state subunits” value (shortened to “kr … by substrate-bound R-state subunits”) [4] was 3.3 s⁻¹.

In the case of KRRKGKVYYF [KRRKGKVYYF], the EC50 [1] is reported as at most 1000 nM, the “Hill Constant (peptide activation)” value ([1]; wild-type DegS) is reported as ~1.2 ^a and the “apparent affinity (in words)” value ([1]; wild-type DegS, among tested peptides) is reported as “highest apparent affinity”. The “maximal activation (in words)” value ([1]; wild-type DegS, saturating peptide) was “lowest maximal activation”, the “rate of rhodamine-FP modification in presence of peptide (order)” value [2] was “slowest” and the “L0, equilibrium constant T/R” value [5] was 15000. The KTP/KRP [5] was 3.3, the “kr … by substrate-bound R-state subunits” value [5] was 3.3 s⁻¹ and the “DegS molecules in active conformation” value ([5]; saturating peptide and saturating RseA substrate, MWC model) was 9%.

DNRDGNVYQF [DNRDGNVYQF] was tested, and the “KRS, dissociation constant” value ([6]; RseA, not peptide, binding) was 150 µM, the “KTS, dissociation constant” value ([6]; RseA, not peptide, binding) was 505 µM and the “L0, equilibrium constant T/R” value ([6]; enzyme parameter, peptide-independent) was 180. For the same molecule, the KTP/KRP ([6]; peptide preference for relaxed state) was 1.9, the “kr … by substrate-bound R-state subunits” value ([6]; same value for all enzymes and peptides) was 3.3 s⁻¹ and the “Hill Constant (peptide activation)” value ([1]; wild-type DegS) was 1.6 ± 0.1. The “Hill Constant (peptide activation)” value [3] was 1.2 ± 0.1, the “RseA cleavage relative to wild-type DegS” value [3, 11] was “about three-fold faster” and the “KRS, dissociation constant” value [4] was 150 µM. For the same molecule, the “KTS, dissociation constant” value [4] was 505 µM, the “L0, equilibrium constant T/R” value [4] was 350 and the KTP/KRP [4] was 2.8. For the same molecule, the “kr … by substrate-bound R-state subunits” value [4] was 3.3 s⁻¹, the “L0, equilibrium constant T/R” value [5] was 15000 and the KTP/KRP [5] was 6.1. The “kr … by substrate-bound R-state subunits” value [5] was 3.3 s⁻¹, the “Hill Constant (peptide activation)” value ([7]; 200 μM RseA) was 1.3 ± 0.1 and the “RseA cleavage relative to wild-type DegS” value [7, 11] was “about three-fold faster”.

For YYF tripeptide, the KRP (dissociation constant for an R-state subunit) [8] was 1.24 µM and the KTP (dissociation constant for a T-state subunit) [8] was 3.76 µM.

`NC(=O)CC[C@H](NC(=O)[C@@H](N)Cc1ccc(O)cc1)C(=O)N[C@@H](Cc1ccccc1)C(=O)O` [YQF] (H-Tyr-Gln-Phe-OH) was tested, and the “displacement in concentration between YYF and YQF activation curves” value ([1]; wild-type DegS) was about 10 fold and the “Hill Constant (peptide activation)” value ([1]; wild-type DegS) was 1.6 ± 0.1.

B1: OMP peptide DNRDGNVYYF (peptide)
peptide: DNRDGNVYYF
For B1, the “KRP (dissociation constant for an R-state subunit)” value [9] was 0.06 µM, the “KTP (dissociation constant for a T-state subunit)” value [9] was 0.2 µM and the “KRP (dissociation constant for an R-state subunit)” value [10] was 0.07 µM. For the same molecule, the “KTP (dissociation constant for a T-state subunit)” value [10] was 0.14 µM.

B2: OMP peptide DNRDGNVYQF (peptide)
peptide: DNRDGNVYQF
B2 was tested, and the “KRP (dissociation constant for an R-state subunit)” value [9] was 1.09 µM, the “KTP (dissociation constant for a T-state subunit)” value [9] was 2.98 µM and the “KRP (dissociation constant for an R-state subunit)” value [10] was 1.64 µM. The “KTP (dissociation constant for a T-state subunit)” value [10] was 3.19 µM.

B3: OMP peptide EDGEDGDYYF (peptide)
peptide: EDGEDGDYYF
With B3 the “KRP (dissociation constant for an R-state subunit)” value [9] was 4.02 µM and the “KTP (dissociation constant for a T-state subunit)” value [9] was 8.5 µM.
